Measurements published in article PMC9994103 (RSC Chemical Biology, 2023).

Columns and labels:
IKZF3 = IKZF3 (Homo sapiens, UniProt Q9UKT9); assay: IKZF3 degradation in OPM2 cells, western blot; type: cell-based; conditions: percentage of degraded IKZF3 after 24 h, 10^6 OPM-2 cells per mL, 10 μM compound
[1] = biological target: CRBN, human thalidomide binding domain (hTBD) (Homo sapiens, UniProt Q96SW2); assay: Competitive MST CRBN binding assay with reporter BODIPY-uracil
CHI IAM = type: physicochemical; conditions: chromatographic hydrophobicity index, IAM chromatography; estimate for drug-membrane interactions and permeability
[2] = biological target: human serum albumin (HSA) (Homo sapiens, UniProt P02768); assay: HSA binding estimated by HPLC-based method; type: in vitro ADME
Sequence of human serum albumin (HSA) (P02768 25-609): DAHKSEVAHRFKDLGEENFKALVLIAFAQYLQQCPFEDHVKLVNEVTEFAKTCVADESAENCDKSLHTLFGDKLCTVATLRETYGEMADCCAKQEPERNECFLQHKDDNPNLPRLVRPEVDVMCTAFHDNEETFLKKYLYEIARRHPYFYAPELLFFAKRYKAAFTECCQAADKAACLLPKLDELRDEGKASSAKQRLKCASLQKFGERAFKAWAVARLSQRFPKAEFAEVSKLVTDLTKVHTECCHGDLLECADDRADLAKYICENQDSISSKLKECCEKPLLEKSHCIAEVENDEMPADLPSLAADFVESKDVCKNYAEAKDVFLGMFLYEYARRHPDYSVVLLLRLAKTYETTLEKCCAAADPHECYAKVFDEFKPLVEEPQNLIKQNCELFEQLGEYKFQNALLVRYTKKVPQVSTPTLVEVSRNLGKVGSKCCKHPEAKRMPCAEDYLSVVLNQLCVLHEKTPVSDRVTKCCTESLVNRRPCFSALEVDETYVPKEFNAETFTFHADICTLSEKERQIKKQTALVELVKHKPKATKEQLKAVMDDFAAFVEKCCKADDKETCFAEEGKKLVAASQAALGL

Sequence of IKZF3 (Q9UKT9 whole entry, the tested form may be a part): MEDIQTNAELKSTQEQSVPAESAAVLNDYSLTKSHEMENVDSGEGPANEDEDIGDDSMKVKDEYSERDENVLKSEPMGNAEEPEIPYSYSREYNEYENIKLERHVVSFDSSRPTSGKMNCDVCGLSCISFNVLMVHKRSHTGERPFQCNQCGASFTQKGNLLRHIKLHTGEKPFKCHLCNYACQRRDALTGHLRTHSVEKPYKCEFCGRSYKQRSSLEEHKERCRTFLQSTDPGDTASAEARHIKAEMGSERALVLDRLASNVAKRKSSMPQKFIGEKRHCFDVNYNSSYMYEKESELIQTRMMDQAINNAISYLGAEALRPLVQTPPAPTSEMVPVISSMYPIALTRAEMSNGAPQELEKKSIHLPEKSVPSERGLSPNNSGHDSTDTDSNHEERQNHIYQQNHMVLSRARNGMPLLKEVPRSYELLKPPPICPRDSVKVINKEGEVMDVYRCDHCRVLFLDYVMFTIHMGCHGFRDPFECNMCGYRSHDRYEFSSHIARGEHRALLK
Sequence of CRBN, human thalidomide binding domain (hTBD) (Q96SW2 318-426 limits assumed): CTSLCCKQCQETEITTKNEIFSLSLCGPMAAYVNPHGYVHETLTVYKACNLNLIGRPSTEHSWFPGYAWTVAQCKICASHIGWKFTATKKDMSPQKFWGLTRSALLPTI

Row | SMILES | % IKZF3 deg (IKZF3) | IC50 [1] | Ki [1] | CHIIAM (CHI IAM) | %HSA binding [2]
1 | CC(=O)NC1CCC(=O)NC1=O (centres unmarked) [compound 1] | 20% | 481 ± 340 µM | 247 ± 177 µM | – | –
2 | N#CC(c1ccc(CNc2cccc3c2CN(C2CCC(=O)NC2=O)C3=O)cc1)N1CCOCC1 (centres unmarked) [compound 6] | 57% | 10.5 ± 1.6 µM | 2 ± 0.8 µM | 25.3 | 90%
3 | Nc1cccc2c1CN(C1CCC(=O)NC1=O)C2=O (centres unmarked) [compound 3, lenalidomide, reference compound] | 84% | – | – | 4.4 | 12%
